Measured values reported in patent publication US7012089B2, “[1,4]Diazocino[7,8,1-hi]indole derivatives as antipsychotic and antiobesity agents” (Wyeth, priority 2002, dated 2006).
Like-named read-outs stand apart in the source and are kept apart here.

Biological target: T1, human 5-hydroxytryptamine-2C (h-5-HT2C) receptor (Homo sapiens, UniProt P28335)
T1 sequence (P28335 33-458): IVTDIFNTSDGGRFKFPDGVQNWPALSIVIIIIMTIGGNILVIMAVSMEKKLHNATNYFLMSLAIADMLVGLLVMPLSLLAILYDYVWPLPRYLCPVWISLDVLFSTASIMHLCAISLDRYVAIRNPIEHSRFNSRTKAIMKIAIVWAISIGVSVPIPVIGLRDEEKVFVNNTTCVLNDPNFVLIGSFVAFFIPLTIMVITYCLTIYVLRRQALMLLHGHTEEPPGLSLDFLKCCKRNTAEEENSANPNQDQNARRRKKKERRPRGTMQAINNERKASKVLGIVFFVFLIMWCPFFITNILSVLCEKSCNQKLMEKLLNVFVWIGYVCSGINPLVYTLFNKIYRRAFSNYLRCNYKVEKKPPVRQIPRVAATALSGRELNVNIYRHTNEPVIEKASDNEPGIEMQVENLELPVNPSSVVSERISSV
Experiment: [125I]DOI binding to membranes of CHO cells expressing the h-5-HT2C receptor

[1] = 5-HT2c Affinity KI (nM), displacement of [125I]DOI, CHO cell membranes

Structure (SMILES)	Ki [1] [nM]	Ki (read-out: 5-HT2c Affinity KI) [nM]
Fc1ccc2c3c1[C@H]1CCCC[C@H]1N3CCNCC2 (single isomer, unassigned) [Example 32, (+)-(8bR*,12aR*)-8-Fluoro-2,3,4,5,8b,9,10,11,12,12a-decahydro-1H-[1,4]diazocino[7,8,1-jk]carbazole]	2	–
Fc1ccc2c3c1[C@H]1CCCC[C@H]1N3CCNCC2 (single isomer, unassigned) [Example 33, (−)-(8bR*,12aR*)-8-Fluoro-2,3,4,5,8b,9,10,11,12,12a-decahydro-1H-[1,4]diazocino[7,8,1-jk]carbazole]	1.4	–
Clc1ccc2c3c1[C@H]1CCCC[C@H]1N3CCNCC2 (single isomer, unassigned) [Example 42, (+)-(8bR*,12aR*)-8-Chloro-2,3,4,5,8b,9,10,11,12,12a-decahydro-1H-[1,4]diazocino[7,8,1-jk]carbazole]	5.1	–
Clc1ccc2c3c1[C@H]1CCCC[C@H]1N3CCNCC2 (single isomer, unassigned) [Example 43, (−)-(8bR*,12aR*)-8-Chloro-2,3,4,5,8b,9,10,11,12,12a-decahydro-1H-[1,4]diazocino[7,8,1-jk]carbazole]	7	–
c1cc2c3c(c1)[C@H]1CCC[C@H]1N3CCNCC2 (single isomer, unassigned) [Example 45, (+)-(8bR*,11aR*)-2,3,4,5,9,10,11,11a-Octahydro-1H,8bH-cyclopenta[b][1,4]diazocino[7,8,1-hi]indole]	362	–
c1cc2c3c(c1)[C@H]1CCCC[C@H]1N3CCNCC2 (single isomer, unassigned) [Example 47, (+)-(8bR*,12aR*)-2,3,4,5,8b,9,10,11,12,12a-Decahydro-1H-[1,4]diazocino[7,8,1-jk]carbazole]	135	–
CN1CCc2c(Cl)ccc3c2N(CC1)C1CCCC31 (stereo not shown) [Example 15, 6-Chloro-3-Methyl-2,3,4,5,9,10,11,11a-octahydro-1H,8bH-cyclopenta[b][1,4]diazocino[7,8,1-hi]indole]	–	131
CN1CCc2c(Cl)ccc3c2N(CC1)C1CCCCCC31 (stereo not shown) [Example 16, 6-Chloro-3-methyl-2,3,4,5,9,10,11,12,13,13a-decahydro-1H,8bH-cyclohepta[b][1,4]diazocino[7,8,1-hi]indole]	84	–
Clc1ccc2c3c(n4c2c1CCNCC4)CCC3 [Example 17, 6-Chloro-2,3,4,5,10,11-hexahydro-1H,9H-cyclopenta[b][1,4]diazocino[7,8,1-hi]indole]	–	156
Clc1ccc2c3c(n4c2c1CCNCC4)CCCC3 [Example 18, 6-Chloro-2,3,4,5,9,10,11,12-octahydro-1H-[1,4]diazocino[7,8,1-jk]carbazole]	83	–
Clc1ccc2c3c(n4c2c1CCNCC4)CCCCC3 [Example 19, 6-Chloro-2,3,4,5,10,11,12,13-octahydro-1H,9H-cyclohepta[b][1,4]diazocino[7,8,1-hi]indole]	–	4970
Clc1ccc2c3c1CCNCCN3C1CCCC21 (stereo not shown) [Example 20, 6-Chloro-2,3,4,5,9,10,11,11a-octahydro-1H,8bH-cyclopenta[b][1,4]diazocino[7,8,1-hi]indole]	–	111
CCN1CCc2c(Cl)ccc3c2N(CC1)C1CCCC31 (stereo not shown) [Example 21, 6-Chloro-3-ethyl-2,3,4,5,9,10,11,11a-octahydro-1H,8bH-cyclopenta[b][1,4]diazocino[7,8,1-hi]indole]	–	137
CCN1CCc2c(Cl)ccc3c2N(CC1)C1CCCCC31 (stereo not shown) [Example 23, 6-Chloro-3-ethyl-2,3,4,5,8b,9,10,11,12,12a-decahydro-1H-[1,4]diazocino[7,8,1-jk]carbazole]	–	116
CN1CCc2ccc(F)c3c4c(n(c23)CC1)CCC4 [Example 24, 8-Fluoro-3-methyl-2,3,4,5,10,11-hexahydro-1H,9H-cyclopenta[b][1,4]diazocino[7,8,1-hi]indole]	93	–
CN1CCc2ccc(F)c3c4c(n(c23)CC1)CCCC4 [Example 25, 8-Fluoro-3-methyl-2,3,4,5,9,10,11,12-octahydro-1H-[1,4]diazocino[7,8,1-jk]carbazole]	68	–
